# Test results published in patent US10005818B2, “Derivative peptide compounds and methods of use” (REALTA HOLDINGS, LLC, priority 2010, dated 2018).
# Square brackets hold non-standard residues; d marks the D form. Peptide text beside a SMILES is read from it. Sar = CNCC(=O)O
# Experiments:
# [1] = system: complement activation in factor B-depleted human sera; format: biochemical
# Method: Peptides were diluted to 0.77 mM in factor B-depleted human sera (Complement Technologies, Inc.) and incubated for 1 hour at 37° C. These peptides were then diluted with GVBS^++ to equal 2.5/s serum, of which 0.25 ml was combined with 0.4 ml of GVBS^++ and 0.1 ml of sensitized sheep red blood cells (RBCs) and again incubated for 1 hour at 37° C. The procedure was stopped by the addition of 4.0 ml of GVBS^−−, centrifuged for 5 minutes at 1,620×g, and the absorbance of the supernatants was read at 412 nm in a spectrophotometer. The percent lysis of each sample was standardized to that of the serum only control.
# The final concentration of peptide in factor B-depleted serum was 0.77 mM. Each peptide was evaluated in triplicate and the mean values are reported. […] In the hemolytic assay, soluble peptides are standardized to water and insoluble peptides standardized to DMSO.
# Polar Assortant peptides were serially diluted in undiluted factor B-depleted human sera (Complement Technologies, Inc.) and incubated for 1 hour at 37° C. Water, GVBS^++ and DMSO were included as controls. These peptides were then diluted with GVBS^++ to equal 2.5/s serum, of which 0.25 ml was combined with 0.4 ml of GVBS^++ and 0.1 ml of sensitized sheep red blood cells (RBCs) and again incubated for 1 hour at 37° C. The procedure was stopped by the addition of 4.0 ml of GVBS^−−, centrifuged for 5 minutes at 1,620×g, and the absorbance of the supernatants was read at 412 nm in a spectrophotometer. The percent lysis of each sample was standardized to that of the serum only control.
# The final concentration of peptide in factor B-depleted serum was 0.77 mM. […] In the hemolytic assay, soluble peptides were standardized to water and insoluble peptides standardized to DMSO.
# The final concentration of peptide in factor B-depleted serum was 0.77 mM. […] In the hemolytic assay, soluble peptides are standardized to water and insoluble peptides standardized to DMSO.
# Solubility in water = format: physicochemical
# [2] = Table 5, sarcosine substitution peptides
# [3] = Table 7, PEGylated and sarcosine/alanine substitution peptides
Compound,Hemolysis (%) [1] [%],Solubility in water (Solubility in water; [2]),Solubility in water (Solubility in water; [3]),solubility in water / aqueous solutions (Solubility in water)
CC[C@H](C)[C@H](N)C(=O)N[C@@H](C)C(=O)N[C@@H](CC(C)C)C(=O)N(C)CC(=O)N[C@@H](CC(C)C)C(=O)N[C@@H](CCC(=O)O)C(=O)N1CCC[C@H]1C(=O)N[C@H](C(=O)N[C@@H](CS)C(=O)N[C@@H](CS)C(=O)N[C@@H](CCC(N)=O)C(=O)N[C@@H](CCC(=O)O)C(=O)N[C@@H](CCCNC(=N)N)C(=O)N[C@@H](C)C(=O)N[C@@H](C)C(=O)O)[C@@H](C)CC [PA-I4Sar] (H-IAL[Sar]LEPICCQERAA-OH; N-terminus and C-terminus assumed),93.19,Yes,,
"CC[C@H](C)[C@H](N)C(=O)N[C@@H](C)C(=O)N[C@@H](CC(C)C)C(=O)N[C@H](C(=O)N[C@@H](CC(C)C)C(=O)N[C@@H](CCC(=O)O)C(=O)N1CCC[C@H]1C(=O)N(C)CC(=O)N[C@@H](CS)C(=O)N[C@@H](CS)C(=O)N[C@@H](CCC(N)=O)C(=O)N[C@@H](CCC(=O)O)C(=O)N[C@@H](CCCNC(=N)N)C(=O)N[C@@H](C)C(=O)N[C@@H](C)C(=O)O)[C@@H](C)CC [PA-I8Sar, IALILEP(Sar)CCQERAA]",33.92,Yes,,
CC[C@H](C)[C@H](N)C(=O)N[C@@H](C)C(=O)N(C)CC(=O)N[C@H](C(=O)N[C@@H](CC(C)C)C(=O)N[C@@H](CCC(=O)O)C(=O)N1CCC[C@H]1C(=O)N[C@H](C(=O)N[C@@H](CS)C(=O)N[C@@H](CS)C(=O)N[C@@H](CCC(N)=O)C(=O)N[C@@H](CCC(=O)O)C(=O)N[C@@H](CCCNC(=N)N)C(=O)N[C@@H](C)C(=O)N[C@@H](C)C(=O)O)[C@@H](C)CC)[C@@H](C)CC [PA-L3Sar] (H-IA[Sar]ILEPICCQERAA-OH; N-terminus and C-terminus assumed),87.36,Yes,,
CC[C@H](C)[C@H](N)C(=O)N[C@@H](C)C(=O)N[C@@H](CC(C)C)C(=O)N[C@H](C(=O)N(C)CC(=O)N[C@@H](CCC(=O)O)C(=O)N1CCC[C@H]1C(=O)N[C@H](C(=O)N[C@@H](CS)C(=O)N[C@@H](CS)C(=O)N[C@@H](CCC(N)=O)C(=O)N[C@@H](CCC(=O)O)C(=O)N[C@@H](CCCNC(=N)N)C(=O)N[C@@H](C)C(=O)N[C@@H](C)C(=O)O)[C@@H](C)CC)[C@@H](C)CC [PA-L5Sar] (H-IALI[Sar]EPICCQERAA-OH; N-terminus and C-terminus assumed),85.13,Yes,,
"CC[C@H](C)[C@H](N)C(=O)N[C@@H](C)C(=O)N[C@@H](CC(C)C)C(=O)N[C@H](C(=O)N[C@@H](CC(C)C)C(=O)N[C@@H](CCC(=O)O)C(=O)N(C)CC(=O)N[C@H](C(=O)N(C)CC(=O)N[C@@H](CS)C(=O)N[C@@H](CCC(N)=O)C(=O)N[C@@H](CCC(=O)O)C(=O)N[C@@H](CCCNC(=N)N)C(=O)N[C@@H](C)C(=O)N[C@@H](C)C(=O)O)[C@@H](C)CC)[C@@H](C)CC [PA-P7SarC9Sar, IALILE(Sar)I(Sar)CQERAA] (H-IALILE[Sar]I[Sar]CQERAA-OH)",82.72,,Yes,
CC[C@H](C)[C@H](N)C(=O)N[C@@H](C)C(=O)N[C@@H](CC(C)C)C(=O)N[C@H](C(=O)N[C@@H](CC(C)C)C(=O)N[C@@H](CCC(=O)O)C(=O)N(C)CC(=O)N[C@H](C(=O)N[C@@H](CS)C(=O)N[C@@H](CS)C(=O)N[C@@H](CCC(N)=O)C(=O)N[C@@H](CCC(=O)O)C(=O)N[C@@H](CCCNC(=N)N)C(=O)N[C@@H](C)C(=O)N[C@@H](C)C(=O)O)[C@@H](C)CC)[C@@H](C)CC [PA-P7Sar] (H-IALILE[Sar]ICCQERAA-OH; N-terminus and C-terminus assumed),3.01,Yes,,water soluble
CC[C@H](C)[C@H](N)C(=O)N[C@@H](C)C(=O)N[C@@H](CC(C)C)C(=O)N[C@H](C(=O)N[C@@H](CC(C)C)C(=O)N[C@@H](CCC(=O)O)C(=O)N1CCC[C@H]1C(=O)N[C@H](C(=O)N[C@@H](CS)C(=O)N[C@@H](CS)C(=O)N(C)CC(=O)N[C@@H](CCC(=O)O)C(=O)N[C@@H](CCCNC(=N)N)C(=O)N[C@@H](C)C(=O)N[C@@H](C)C(=O)NCCOCCOCCOCCOCCOCCOCCOCCOCCOCCOCCOCCOCCOCCOCCOCCOCCOCCOCCOCCOCCOCCOCCOCCOCCC(=O)O)[C@@H](C)CC)[C@@H](C)CC [PA-Q11Sar-dPEG24],12.04,,Yes,
CC[C@H](C)[C@H](N)C(=O)N[C@@H](C)C(=O)N[C@@H](CC(C)C)C(=O)N[C@H](C(=O)N[C@@H](CC(C)C)C(=O)N[C@@H](CCC(=O)O)C(=O)N1CCC[C@H]1C(=O)N[C@H](C(=O)N[C@@H](CS)C(=O)N[C@@H](CS)C(=O)N[C@@H](CCC(N)=O)C(=O)N[C@@H](CCC(=O)O)C(=O)N(C)CC(=O)N[C@@H](C)C(=O)N[C@@H](C)C(=O)NCCOCCOCCOCCOCCOCCOCCOCCOCCOCCOCCOCCOCCOCCOCCOCCOCCOCCOCCOCCOCCOCCOCCOCCOCCC(=O)O)[C@@H](C)CC)[C@@H](C)CC [PA-R13Sar-dPEG24],4.26,,Yes,
CC[C@H](C)[C@H](N)C(=O)N[C@@H](C)C(=O)N[C@@H](CC(C)C)C(=O)N[C@H](C(=O)N[C@@H](CC(C)C)C(=O)N[C@@H](CCC(=O)O)C(=O)N1CCC[C@H]1C(=O)N[C@H](C(=O)N[C@@H](CS)C(=O)N[C@@H](CS)C(=O)N[C@@H](CCC(N)=O)C(=O)N[C@@H](CCC(=O)O)C(=O)N(C)CC(=O)N[C@@H](C)C(=O)N[C@@H](C)C(=O)O)[C@@H](C)CC)[C@@H](C)CC [PA-R13Sar],3.42,No,,
CC[C@H](C)[C@H](N)C(=O)N[C@@H](C)C(=O)N[C@@H](CC(C)C)C(=O)N[C@H](C(=O)N[C@@H](CC(C)C)C(=O)N[C@@H](CCC(=O)O)C(=O)N1CCC[C@H]1C(=O)N[C@H](C(=O)N(C)CC(=O)N[C@@H](CS)C(=O)N[C@@H](CCC(N)=O)C(=O)N[C@@H](CCC(=O)O)C(=O)N[C@@H](CCCNC(=N)N)C(=O)N(C)CC(=O)N[C@@H](C)C(=O)O)[C@@H](C)CC)[C@@H](C)CC [Peptide A14SarC9Sar] (H-IALILEPI[Sar]CQER[Sar]A-OH),14.73,,No,
"CC[C@H](C)[C@H](N)C(=O)N[C@@H](C)C(=O)N[C@@H](CC(C)C)C(=O)N[C@H](C(=O)N[C@@H](CC(C)C)C(=O)N[C@@H](CCC(=O)O)C(=O)N(C)CC(=O)N[C@H](C(=O)N[C@@H](CS)C(=O)N[C@@H](CS)C(=O)N[C@@H](CCC(N)=O)C(=O)N[C@@H](CCC(=O)O)C(=O)N[C@@H](CCCNC(=N)N)C(=O)N(C)CC(=O)N[C@@H](C)C(=O)O)[C@@H](C)CC)[C@@H](C)CC [Peptide A14SarP7Sar, IALILE(Sar)ICCQER(Sar)A] (H-IALILE[Sar]ICCQER[Sar]A-OH; N-terminus and C-terminus assumed)",4.37,,Yes,
